Reference: US20220356174A1, “PYRIDIN-2-ONE COMPOUNDS USEFUL AS SMARCA2 ANTAGONISTS” (Epizyme, Inc., priority 2018, published 2022)
Where two headings read alike, the source gives them in different places.

How the values were obtained:
FL-SMARCA4 = FL-SMARCA4 (Homo sapiens, UniProt P51532); test: SMARCA4 ATPase activity assay (ADP-Glo, chicken mononucleosome substrate)
[1] = target: T1, FL-SMARCA2 (full-length human SMARCA2 isoform 1) (Homo sapiens, UniProt P51531); test: SMARCA2 ATPase activity assay (ADP-Glo, chicken mononucleosome substrate); type: biochemical; settings: ATP 250 uM
T1 construct: FLAG tag (YKDDDDK) (C); made in house; host or cells: Sf21 insect cells (baculovirus, pFastBacI)

[2] = FL-SMARCA4 IC50, Table 3.2, ATPase assay, enzyme 5 nM, ATP 250 uM, chicken mononucleosome 10 nM, 30 min preincubation
[3] = Table 3.1, ATPase assay, enzyme 5 nM, chicken mononucleosome 10 nM, 30 min preincubation
[4] = FL-SMARCA4 IC50, Table 3a.2, SMARCA4 5 nM, ATP 250 uM, mononucleosome 10 nM
[5] = Table 3a.1, SMARCA2 5 nM, mononucleosome 10 nM
[6] = FL-SMARCA4 IC>50, Table 3c.2, ATPase assay, enzyme 5 nM, ATP 250 uM, chicken mononucleosome 10 nM, 30 min preincubation
[7] = Table 3c.1, ATPase assay, enzyme 5 nM, chicken mononucleosome 10 nM, 30 min preincubation
[8] = Table 3d.1, ATPase assay, enzyme 5 nM, chicken mononucleosome 10 nM, 30 min preincubation, read-out: FL-SMARCA2 IC>50
[9] = FL-SMARCA4 IC50, Table 3b.2, SMARCA4 5 nM, ATP 250 uM, mononucleosome 10 nM
[10] = Table 3b.1, SMARCA2 5 nM, mononucleosome 10 nM

Sequence of FL-SMARCA4 (P51532 whole entry, canonical isoform): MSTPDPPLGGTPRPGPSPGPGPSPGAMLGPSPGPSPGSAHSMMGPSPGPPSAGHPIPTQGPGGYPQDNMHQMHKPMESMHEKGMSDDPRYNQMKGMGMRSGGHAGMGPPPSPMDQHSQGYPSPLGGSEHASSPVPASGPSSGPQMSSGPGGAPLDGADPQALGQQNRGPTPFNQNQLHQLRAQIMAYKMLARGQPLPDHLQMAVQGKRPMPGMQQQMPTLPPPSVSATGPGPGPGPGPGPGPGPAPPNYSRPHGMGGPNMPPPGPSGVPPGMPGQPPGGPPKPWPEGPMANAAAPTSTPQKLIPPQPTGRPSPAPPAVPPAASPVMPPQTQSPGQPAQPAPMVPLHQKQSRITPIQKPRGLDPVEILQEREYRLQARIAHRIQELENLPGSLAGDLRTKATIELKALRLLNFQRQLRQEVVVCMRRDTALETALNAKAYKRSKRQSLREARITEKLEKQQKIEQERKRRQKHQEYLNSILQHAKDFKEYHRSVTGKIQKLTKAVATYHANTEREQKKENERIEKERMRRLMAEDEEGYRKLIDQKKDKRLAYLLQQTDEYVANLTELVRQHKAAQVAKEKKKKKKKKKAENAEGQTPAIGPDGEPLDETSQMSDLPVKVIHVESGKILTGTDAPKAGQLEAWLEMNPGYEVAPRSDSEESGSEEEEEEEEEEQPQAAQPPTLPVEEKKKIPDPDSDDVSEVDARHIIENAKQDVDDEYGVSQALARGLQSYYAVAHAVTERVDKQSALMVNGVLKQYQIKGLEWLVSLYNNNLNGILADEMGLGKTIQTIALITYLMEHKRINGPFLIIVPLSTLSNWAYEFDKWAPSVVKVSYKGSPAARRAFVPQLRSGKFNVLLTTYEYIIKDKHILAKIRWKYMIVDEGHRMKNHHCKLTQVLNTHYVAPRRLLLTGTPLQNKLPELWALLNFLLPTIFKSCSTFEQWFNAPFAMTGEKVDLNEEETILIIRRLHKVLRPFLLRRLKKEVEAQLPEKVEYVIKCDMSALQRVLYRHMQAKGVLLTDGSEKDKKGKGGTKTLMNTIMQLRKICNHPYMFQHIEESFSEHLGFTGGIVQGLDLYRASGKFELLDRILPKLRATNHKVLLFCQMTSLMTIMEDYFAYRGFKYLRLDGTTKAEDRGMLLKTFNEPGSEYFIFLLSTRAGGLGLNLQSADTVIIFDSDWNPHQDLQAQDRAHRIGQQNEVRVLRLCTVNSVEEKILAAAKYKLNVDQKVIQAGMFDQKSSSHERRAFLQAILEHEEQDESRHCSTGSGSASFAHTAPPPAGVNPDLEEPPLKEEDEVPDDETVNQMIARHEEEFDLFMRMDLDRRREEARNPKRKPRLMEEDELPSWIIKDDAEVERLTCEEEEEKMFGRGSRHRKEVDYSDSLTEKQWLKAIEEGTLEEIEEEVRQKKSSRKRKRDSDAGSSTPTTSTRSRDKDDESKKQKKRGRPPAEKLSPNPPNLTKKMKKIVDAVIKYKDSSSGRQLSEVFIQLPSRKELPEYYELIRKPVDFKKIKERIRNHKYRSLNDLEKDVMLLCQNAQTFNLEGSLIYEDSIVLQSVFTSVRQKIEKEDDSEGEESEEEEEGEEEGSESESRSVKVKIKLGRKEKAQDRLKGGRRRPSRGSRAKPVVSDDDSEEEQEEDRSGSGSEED
T1 sequence (P51531 with tags, fused parts or gaps): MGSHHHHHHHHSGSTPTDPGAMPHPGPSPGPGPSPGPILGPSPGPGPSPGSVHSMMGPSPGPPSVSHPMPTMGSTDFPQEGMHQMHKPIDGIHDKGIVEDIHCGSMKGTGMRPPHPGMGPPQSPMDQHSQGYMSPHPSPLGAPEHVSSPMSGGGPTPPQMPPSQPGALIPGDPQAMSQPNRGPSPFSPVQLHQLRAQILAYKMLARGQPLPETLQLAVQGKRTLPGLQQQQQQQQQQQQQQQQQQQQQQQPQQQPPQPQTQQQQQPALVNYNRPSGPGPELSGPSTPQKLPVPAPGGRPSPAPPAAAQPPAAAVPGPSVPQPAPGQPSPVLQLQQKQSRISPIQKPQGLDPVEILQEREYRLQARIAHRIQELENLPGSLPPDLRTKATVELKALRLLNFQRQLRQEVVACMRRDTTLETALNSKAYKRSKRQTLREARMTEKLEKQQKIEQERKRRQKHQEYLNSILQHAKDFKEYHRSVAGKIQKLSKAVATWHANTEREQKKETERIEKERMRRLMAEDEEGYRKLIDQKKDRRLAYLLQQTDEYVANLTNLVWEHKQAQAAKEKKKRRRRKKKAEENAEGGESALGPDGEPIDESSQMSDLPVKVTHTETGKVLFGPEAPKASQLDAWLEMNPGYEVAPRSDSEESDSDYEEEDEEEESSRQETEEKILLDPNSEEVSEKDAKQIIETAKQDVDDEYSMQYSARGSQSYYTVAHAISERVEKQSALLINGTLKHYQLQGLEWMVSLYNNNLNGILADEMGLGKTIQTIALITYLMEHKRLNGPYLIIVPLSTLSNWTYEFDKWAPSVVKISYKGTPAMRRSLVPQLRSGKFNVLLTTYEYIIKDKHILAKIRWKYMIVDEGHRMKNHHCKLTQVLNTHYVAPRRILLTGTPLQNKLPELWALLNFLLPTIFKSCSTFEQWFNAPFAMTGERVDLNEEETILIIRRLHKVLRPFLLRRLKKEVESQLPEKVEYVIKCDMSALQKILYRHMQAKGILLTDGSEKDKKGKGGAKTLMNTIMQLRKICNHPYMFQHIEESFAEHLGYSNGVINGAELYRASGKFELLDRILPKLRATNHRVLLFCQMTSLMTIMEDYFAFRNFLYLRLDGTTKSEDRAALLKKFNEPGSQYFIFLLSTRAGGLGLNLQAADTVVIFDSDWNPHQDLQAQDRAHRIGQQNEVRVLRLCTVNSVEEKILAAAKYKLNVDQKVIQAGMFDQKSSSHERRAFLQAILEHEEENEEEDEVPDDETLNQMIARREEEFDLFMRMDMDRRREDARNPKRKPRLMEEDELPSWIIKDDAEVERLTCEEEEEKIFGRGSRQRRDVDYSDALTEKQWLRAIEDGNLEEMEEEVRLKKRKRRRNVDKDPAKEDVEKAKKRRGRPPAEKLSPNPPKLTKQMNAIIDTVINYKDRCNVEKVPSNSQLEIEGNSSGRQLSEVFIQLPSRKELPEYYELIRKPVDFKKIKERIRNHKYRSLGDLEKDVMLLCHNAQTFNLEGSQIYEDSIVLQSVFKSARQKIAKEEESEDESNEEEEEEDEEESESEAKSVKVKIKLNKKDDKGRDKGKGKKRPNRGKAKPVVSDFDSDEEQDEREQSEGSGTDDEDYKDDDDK

Question: With `CS(=O)(=O)c1ccc(C(=O)Nc2cc(F)c(=O)n(CCF)c2)s1` [Compound 288] as the molecule, how does the IC50 (FL-SMARCA4; [2]) read?
Answer: The IC50 was > 50 µM.

Question: What about the IC50 [1, 3] of the same molecule?
Answer: Its IC50 is > 50 µM.

Question: What does the source list for `CC(F)Cn1cc(NC(=O)c2cc(Cl)c(C(F)(F)F)s2)cc(F)c1=O` (stereo not drawn) [Compound 331]?
Answer: IC50 (FL-SMARCA4; [2]): 0.924 µM; IC50 [1, 3]: 0.172 µM

Question: With `COC1(C(=O)Nc2ccc(=O)n(Cc3ccccc3Cl)c2)CCNCC1` [Compound 4a] as the molecule, how does the IC50 (FL-SMARCA4; [4]) read?
Answer: Its IC50 is > 50 µM.

Question: What about the IC50 [1, 5] of the same molecule?
Answer: The IC50 was > 50 µM.

Question: How did the IC50 (FL-SMARCA4; [6]) turn out when `O=C(Nc1cc(F)c(=O)n(CC(F)F)c1)c1cc(C2CN(c3ccncc3)C2)c(Cl)s1` [Compound 77c] was run?
Answer: The IC50 was 30.5 µM.

Question: What about the IC50 [1, 7] of the same molecule?
Answer: Its IC50 is 6.56 µM.

Question: `Cn1ccc(-c2cc(NC(=O)c3cc(Cl)c(C(F)(F)F)s3)cn(CC(F)F)c2=O)n1` [Compound 103c] was tested. Which IC50 (FL-SMARCA4; [6]) did it give?
Answer: The IC50 was 26 µM.

Question: What about the IC50 [1, 7] of the same molecule?
Answer: Its IC50 is 31.3 µM.

Question: Which IC50 (FL-SMARCA4; [2]) does the source give for `CCn1cc(NC(=O)c2cc(Cl)c(Cl)n2Cc2ccccc2)ccc1=O` [Compound 57] here?
Answer: Its IC50 is > 50 µM.

Question: And the IC50 [1, 3]?
Answer: Its IC50 is > 50 µM.

Question: With `O=C(Nc1cc(F)c(=O)n(CC(F)F)c1)c1cc(C2COC2)c(Cl)s1` [Compound 49c] as the molecule, how does the IC50 (FL-SMARCA4; [6]) read?
Answer: The IC50 was 16.8 µM.

Question: What about the IC50 [1, 7] of the same molecule?
Answer: Its IC50 is 16.8 µM.

Question: `Cc1cc(=O)n(C)cc1NC(=O)C1CCCN(Cc2ccccc2)C1` (stereo not drawn) [Compound 4d] was tested. Which IC50 (FL-SMARCA4; FL-SMARCA4 IC50) did it give?
Answer: Its IC50 is > 50 µM.

Question: And the IC50 [1, 8]?
Answer: Its IC50 is 32 µM.

Question: How did the IC50 (FL-SMARCA4; [6]) turn out when `O=C(Nc1cc(F)c(=O)n(CC(F)F)c1)c1cc(N2CCN(c3ccncc3)CC2)c(Cl)s1` [Compound 119c] was run?
Answer: Its IC50 is 16.1 µM.

Question: What about the IC50 [1, 7] of the same molecule?
Answer: The IC50 was 6.17 µM.

Question: How did the IC50 (FL-SMARCA4; [2]) turn out when `CCn1cc(NC(=O)c2ncc(Cl)s2)ccc1=O` [Compound 56] was run?
Answer: The IC50 was > 50 µM.

Question: What about the IC50 [1, 3] of the same molecule?
Answer: The IC50 was > 50 µM.

Question: Which results are given for `CCn1cc(NC(=O)c2cc(Cl)c(Cl)n2C)cc(Cl)c1=O` [Compound 133]?
Answer: IC50 (FL-SMARCA4; [2]): 2.18 µM; IC50 [1, 3]: 0.343 µM

Question: `CCn1cc(NC(=O)c2ccc(Cl)c(Cl)c2)ccc1=O` [Compound 4b] was tested. Which IC50 (FL-SMARCA4; [9]) did it give?
Answer: Its IC50 is > 50 µM.

Question: What about the IC50 [1, 10] of the same molecule?
Answer: Its IC50 is 42 µM.

Question: `O=C(Nc1cc(F)c(=O)n(CC(F)F)c1)c1cc(Cl)c(C#CCO)s1` [Compound 52d] was tested. Which IC50 (FL-SMARCA4; FL-SMARCA4 IC50) did it give?
Answer: The IC50 was > 50 µM.

Question: What about the IC50 [1, 8] of the same molecule?
Answer: Its IC50 is 34 µM.

Question: With `O=C(Nc1cc(F)c(=O)n(CC(F)F)c1)c1cc(CC(F)(F)F)c(Cl)s1` [Compound 24c] as the molecule, how does the IC50 (FL-SMARCA4; [6]) read?
Answer: The IC50 was 38.7 µM.

Question: What about the IC50 [1, 7] of the same molecule?
Answer: Its IC50 is 11.3 µM.

Question: Which results are given for `O=C(Nc1cc(F)c(=O)n(CC(F)F)c1)c1cc(Cl)on1` [Compound 44d]?
Answer: IC50 (FL-SMARCA4; FL-SMARCA4 IC50): > 50 µM; IC50 [1, 8]: 29.5 µM

Question: `N#Cc1ccc(C(=O)Nc2cc(F)c(=O)n(CCF)c2)cc1Cl` [Compound 19b] was tested. Which IC50 (FL-SMARCA4; [9]) did it give?
Answer: The IC50 was 12.6 µM.

Question: And the IC50 [1, 10]?
Answer: The IC50 was 2.02 µM.

Question: What does the source list for `N#Cc1cc(C(=O)Nc2cc(F)c(=O)n(CCF)c2)ccc1Cl` [Compound 18b]?
Answer: IC50 (FL-SMARCA4; [9]): 5.34 µM; IC50 [1, 10]: 0.917 µM

Question: With `CNC(=O)c1cc(C(=O)Nc2cc(F)c(=O)n(CCF)c2)sc1C(F)(F)F` [Compound 305] as the molecule, how does the IC50 (FL-SMARCA4; [2]) read?
Answer: The IC50 was > 50 µM.

Question: What about the IC50 [1, 3] of the same molecule?
Answer: Its IC50 is > 50 µM.

Question: `CCn1cc(NC(=O)c2cc(C#CCN(C)C)c(Cl)s2)ccc1=O` [Compound 286] was tested. Which IC50 (FL-SMARCA4; [2]) did it give?
Answer: The IC50 was 16.7 µM.

Question: What about the IC50 [1, 3] of the same molecule?
Answer: The IC50 was 9.49 µM.

Question: Which results are given for `Cn1c(C(=O)Nc2cc(F)c(=O)n(CC(F)(F)F)c2)cnc1C#N` [Compound 221]?
Answer: IC50 (FL-SMARCA4; [2]): 6.28 µM; IC50 [1, 3]: 1.45 µM

Question: What does the source list for `O=C(Nc1cc(F)c(=O)n(CCF)c1)c1cc(Cl)c(C(O)C(F)(F)F)s1` (stereo not drawn) [Compound 289]?
Answer: IC50 (FL-SMARCA4; [2]): 42.6 µM; IC50 [1, 3]: 10.6 µM

Question: For `O=C(Nc1cc(-c2cn[nH]c2)c(=O)n(CC(F)F)c1)c1cc(Cl)c(C(F)(F)F)s1` [Compound 110c], which IC50 (FL-SMARCA4; [6]) is on record?
Answer: The IC50 was > 50 µM.

Question: And the IC50 [1, 7]?
Answer: The IC50 was > 50 µM.

Question: Which results are given for `CCn1cc(NC(=O)c2cn3ccccc3n2)ccc1=O` [Compound 20a]?
Answer: IC50 (FL-SMARCA4; [4]): > 50 µM; IC50 [1, 5]: > 50 µM

Question: With `CCn1cc(NC(=O)c2nc3cc(Cl)c(F)cc3[nH]2)ccc1=O` [Compound 32a] as the molecule, how does the IC50 (FL-SMARCA4; [4]) read?
Answer: Its IC50 is > 50 µM.

Question: What about the IC50 [1, 5] of the same molecule?
Answer: The IC50 was > 50 µM.

Question: How did the IC50 (FL-SMARCA4; [2]) turn out when `Cn1nc(C#N)cc1C(=O)Nc1cc(F)c(=O)n(CCF)c1` [Compound 243] was run?
Answer: Its IC50 is 11.7 µM.

Question: What about the IC50 [1, 3] of the same molecule?
Answer: Its IC50 is 1.64 µM.

Question: How did the IC50 (FL-SMARCA4; FL-SMARCA4 IC50) turn out when `CN(C)CC#Cc1cc(NC(=O)c2cc(F)c(Cl)s2)cn(CC(F)F)c1=O` [Compound 45d] was run?
Answer: The IC50 was > 50 µM.

Question: What about the IC50 [1, 8] of the same molecule?
Answer: The IC50 was > 50 µM.

Question: What does the source list for `CCn1cc(NC(=O)c2nc3cc(Cl)c(Cl)cc3[nH]2)ccc1=O` [Compound 42a]?
Answer: IC50 (FL-SMARCA4; [4]): > 50 µM; IC50 [1, 5]: 13.2 µM

Question: How did the IC50 (FL-SMARCA4; [2]) turn out when `O=C(Nc1ccc(=O)n(CC2CC2)c1)c1cc(Cl)c(Cl)s1` [Compound 82] was run?
Answer: Its IC50 is 28.9 µM.

Question: What about the IC50 [1, 3] of the same molecule?
Answer: Its IC50 is 14.8 µM.

Question: Which results are given for `CCn1cc(NC(=O)c2ccc(Cl)c(Cl)n2)ccc1=O` [Compound 33a]?
Answer: IC50 (FL-SMARCA4; [4]): > 50 µM; IC50 [1, 5]: > 50 µM

Question: How did the IC50 (FL-SMARCA4; [4]) turn out when `COc1ccc2cc(C(=O)Nc3cc(F)c(=O)n(CCF)c3)[nH]c2c1` [Compound 65a] was run?
Answer: Its IC50 is 27 µM.

Question: What about the IC50 [1, 5] of the same molecule?
Answer: The IC50 was 4.91 µM.

Question: Which results are given for `CN(C)CCCc1cc(NC(=O)c2cc(F)c(Cl)s2)cn(CC(F)F)c1=O` [Compound 7c]?
Answer: IC50 (FL-SMARCA4; [6]): > 50 µM; IC50 [1, 7]: > 50 µM

Question: Which IC50 (FL-SMARCA4; [2]) does the source give for `CCn1cc(NC(=O)c2csc(Cl)n2)ccc1=O` [Compound 147] here?
Answer: The IC50 was > 50 µM.

Question: What about the IC50 [1, 3] of the same molecule?
Answer: The IC50 was 17.1 µM.

Question: For `CCn1cc(NC(=O)[C@H]2CC[C@@H](Cl)C2)ccc1=O` [Compound 16b], which IC50 (FL-SMARCA4; [9]) is on record?
Answer: Its IC50 is > 50 µM.

Question: And the IC50 [1, 10]?
Answer: The IC50 was > 50 µM.
